Like-named read-outs stand apart in the source and are kept apart here.
Tests used:
NS3/4A protease gt 1b = NS3/4A protease gt 1b (Hepatitis C virus genotype 1b, UniProt P26663); experiment: HCV NS3 protease time-resolved fluorescence (TRF) assay, NS3/4A inhibitory activity (Ki), gt 1b; assay type: biochemical; conditions: NS3/4A enzyme
Experimental: (§1) The HCV NS3 protease inhibitory activity of the present compounds may be tested using assays known in the art. One such assay is HCV NS3 protease time-resolved fluorescence (TRF) assay as described below and in WO 2006/102087. Other examples of such assays are described in, for example, WO 2005/046712. HCV NS3 protease inhibitors, such as those described herein have a Ki less than 50 μM, such as less than 10 μM, and less than 100 nM. Ki is determined by an NS3 protease assay. The assay is performed in a final volume of 100 μl in assay buffer containing 50 mM HEPES, pH 7.5, 150 mM NaCl, 15% glycerol, 0.15% TRITON X-100, 10 mM DTT, and 0.1% PEG 8000. NS3 protease is preincubated with various concentrations of inhibitors in DMSO for 30 minutes. The reaction is initiated by adding the TRF peptide substrate (final concentration 100 nM). NS3 mediated hydrolysis of the substrate is quenched after 1 hour at room temperature with 100 μl of 500 mM MES, pH 5.5. Product fluorescence is detected using either a VICTOR V2 or FUSION fluorophotometer (PERKIN ELMER LIFE AND ANALYTICAL SCIENCES) with excitation at 340 nm and emission at 615 nm with a 400 μs delay. Testing concentrations of different enzyme forms are selected to result in a signal to background ratio (SIB) of 10-30. IC50 values are derived using a standard four-parameter fit to the data. Ki values are derived from IC50 values using the following formula, IC50=Ki(1+[S]/KM), Eqn (1), where [S] is the concentration of substrate peptide in the reaction and KM is the Michaelis constant. See Paola Gallinari et al., Modulation of Hepatitis C Virus NS3 Protease and Helicase Activities through the Interaction with NS4A, 38 BIOCHEM. 5620 (1999); Paola Gallinari et al., Multiple Enzymatic Activities Associated with Recombinant NS3 Protein of Hepatitis C Virus, 72(8) J. VIROLOGY 6758 (1998); Mariana Taliani et al., A Continuous Assay of Hepatitis C Virus Protease Based on Resonance Energy Transfer Depsipeptide Substrates, 240 ANAL. BIOCHEM. 60 (1996).
(§2) This NS3 protease assay was performed in a final volume of 100 μl assay buffer containing 50 mM HEPES, pH 7.5, 150 mM NaCl, 15% glycerol, 0.15% TRITON X-100, 10 mM DTT, and 0.1% PEG 8000. NS3/4A protease was pre-incubated with various concentrations of inhibitors in DMSO for 30 minutes. The reaction was initiated by adding the TRF peptide substrate (final concentration 100 nM). NS3 mediated hydrolysis of the substrate was quenched after 1 hour at RT with 100 μl of 500 mM MES, pH 5.5. Product fluorescence was detected using either a V1CTOR V2 or FUSION fluorophotometer (PERKIN ELMER LIFE AND ANALYTICAL SCIENCES) with excitation at 340 nm and emission at 615 nm with a 400 us delay. Testing concentrations of different enzyme forms were selected to result in a signal to background ratio (SIB) of 10-30. IC50 values were derived using a standard four-parameter fit to the data. K, values are derived from IC50 values using the following formula, IC50=Ki(1+[S]/KM), Eqn (1), where [S] is the concentration of substrate peptide in the reaction and KM is the Michaelis constant. See Paola Gallinari et al., Modulation of Hepatitis C Virus NS3 Protease and Helicase Activities through the Interaction with NS4A, 38 BIOCHEM. 5620 (1999); Paola Gallinari et al., Multiple Enzymatic Activities Associated with Recombinant NS3 Protein of Hepatitis C Virus, 72(8) J. VIROLOGY 6758 (1998); Mariana Milani et al., A Continuous Assay of Hepatitis C Virus Protease Based on Resonance Energy Transfer Depsipeptide Substrates, 240 ANAL. BIOCHEM. 60 (1996); Shi-Shan Mao et al., A time-resolved, internally quenched fluorescence assay to characterize inhibition of hepatitis C virus nonstructural protein 3-4A protease at low enzyme concentrations, 373 ANALYTICAL BIOCHEMISTRY 1 (2008). Measuring Compound Inhibitory Potency (Replicon EC50 (nM))

NS3/4A protease gt 3a = NS3/4A protease gt 3a (Hepatitis C virus genotype 3a, UniProt Q81258); experiment: HCV NS3 protease time-resolved fluorescence (TRF) assay, NS3/4A inhibitory activity (Ki), gt 3a; assay type: biochemical; conditions: NS3/4A enzyme
Experimental: as §1, §2

HCV gt 1b replicon = experiment: HCV replicon assay, compound inhibitory potency (Replicon EC50); assay type: cell-based; conditions: Hepatitis C virus, GT1B
Experimental: Measurement of inhibition by compounds was performed using the HCV replicon system. Several different replicons encoding different HCV genotypes or mutations were used. In addition, potency measurements were made using different formats of the replicon assay, including different ways of measurements and different plating formats. See Jan M. Vrolijk et al., A replicon-based bioassay for the measurement of interferons in patients with chronic hepatitis C, 110 J. VIROLOGICAL METHODS 201 (2003); Steven S. Carroll et al., Inhibition of Hepatitis C Virus RNA Replication by 2′-Modified Nucleoside Analogs, 278(14) J. BIOLOGICAL CHEMISTRY 11979 (2003). However, the underlying principles are common to all of these determinations, and are outlined below.
Stable neomycin phosphotransferase encoding replicon-harboring cell lines were used, so all cell lines were maintained under G418 selection prior to the assay. In some cases the cell lines encoded a luciferase:NEO FUSION and could be assayed either directly by determination of RNA copy number, or indirectly through measurement of the luciferase activity.
To initiate an assay, replicon cells were plated in the presence of a dilution series of test compound in the absence of G418. Typically, the assays were performed in a 96-well plate format for manual operation, or a 384-well plate in an automated assay. Replicon cells and compound were incubated for 24 to 48 hours, depending on the assay. At the end of the assay, cells are washed free of media and compound and then lysed. For direct quantitation, RNA levels were measured by 32P-probe hybridization and protection, or in a TAQMAN-based assay and normalized to cellular cyclophilin A RNA levels. In some cases, luciferase activity was measured using a conventional luciferase assay. In all cases, EC50 determinations were calculated as a percent of a DMSO control by fitting the data to a four-parameter fit function.

[1] = Plasma and liver concentrations and pharmacokinetics (Rat PK); assay type: in vivo; design: Rat PK 5 mpk AUC: unit not given here; conditions: for concentration at 4 h: 5 mg/kg, 5 mpk, liver concentration at 4 h; for Rat PK 5 mpk AUC: area under the plasma concentration/time curve
Experimental: Test compounds were dissolved in a suitable dosing vehicle for i.v. administration (e.g., 20%:60%:20% DMSO:PEG400:H2O) or per oral administration (e.g., 10% POLYSORBATE80:90% H2O or 100% PEG400). Animals were administered (n=2 or 3) using a crossover study design for non-rodents. Plasma samples were collected at time points between 2 minutes and 24 hours, and compound levels were determined by RP-LC/MS/MS. Liver samples were collected post-mortem in rat. Liver samples were weighed, homogenized, and diluted using techniques known to those skilled in the art, and compound levels were determined by RP-LC/MS/MS.
Pharmacokinetic parameters were calculated based on non-compartmental analysis (e.g., using WATSON, WINNOLIN). Predose concentrations that were below the limit of quantitation (BLQ) were assigned a value of 0, Standard pharmacokinetic parameters CLp, Vdss, half-life (only for IV), % F, Cmax, Tmax, AUC0-last, AUC0-infinity were calculated. AUC values were calculated using linear trapezoidal method for ascending concentrations and the log trapezoidal method for descending concentrations.

[2] = biological target: NS3/4A protease gt 1b A156V (Hepatitis C virus genotype 1b, UniProt P26663, A1182V); experiment: HCV NS3 protease time-resolved fluorescence (TRF) assay, NS3/4A inhibitory activity (Ki), gt 1b A156V; assay type: biochemical
Experimental: as §1, §2

[3] = 10% fetal bovine serum, read-out: gt 1b Replicon EC50 10% FBS
[4] = 50% normal human serum, read-out: gt 1b Replicon EC50 50% NHS

Row | Structure (SMILES) | Ki (NS3/4A protease gt 1b) [nM] | Ki (NS3/4A protease gt 3a) [nM] | EC50 (HCV gt 1b replicon; [3]) [nM] | EC50 (HCV gt 1b replicon; [4]) [nM] | concentration at 4 h [1] [µM] | Rat PK 5 mpk AUC [1] | Ki [2] [nM]
1 | CC1(S(=O)(=O)NC(=O)[C@@]23C[C@H]2/C=C\CCCCC[C@@H]2NC(=O)O[C@@H]4CCC[C@H]4CCCCCc4nc5ccccc5nc4O[C@@H]4C[C@@H](C(=O)N3)N(C4)C2=O)CC1 [Example 7, (3R,20R,24R,28S,34Z,36S,38R,41S)—N-[(1-Methylcyclopropyl)sulfonyl]-26,40,42-trioxo-4,25-dioxa-1,6,13,27,39-pentaazaheptacyclo[26.13.1.1^3,41.0^5,14.0^7,12.0^20,24.0^36,38]tritetraconta-5,7,9,11,13,34-hexaene-38-carboxamide] | 0.02 | 0.72 | 2 | 10 | 41 | 1.35 | 1.2
2 | O=C1N[C@H]2CCCCC/C=C\[C@@H]3C[C@@]3(C(=O)NS(=O)(=O)C3CC3)NC(=O)[C@@H]3C[C@H](CN3C2=O)Oc2nc3ccccc3nc2CCCCC[C@@H]2C[C@H]2O1 [Example 8, (3R,20R,22R,26S,32Z,34S,36R,39S)—N-(Cyclopropylsulfonyl)-24,38,40-trioxo-4,23-dioxa-1,6,13,25,37-pentaazaheptacyclo[24.13.1.1^3,39.0^5,14.0^7,12.0^20,22.0^34,36]hentetraconta-5,7,9,11,13,32-hexaene-36-carboxamide] | 0.02 | 0.49 | 1 | 13 | 7 | 0.06 | 0.9
3 | CC1(S(=O)(=O)NC(=O)[C@@]23C[C@H]2/C=C\CCCCC[C@@H]2NC(=O)O[C@@H]4C[C@H]4CCCCCc4nc5ccccc5nc4O[C@@H]4C[C@@H](C(=O)N3)N(C4)C2=O)CC1 [Example 9, (3R,20R,22R,26S,32Z,34S,36R,39S)—N-[(1-Methylcyclopropyl)sulfonyl]-24,38,40-trioxo-4,23-dioxa-1,6,13,25,37-pentaazaheptacyclo[24.13.1.1^3,39.0^5,14.0^7,12.0^20,22.0^34,36]hentetraconta-5,7,9,11,13,32-hexaene-36-carboxamide] | 0.03 | 0.52 | 2 | 11 | 20 | 0.26 | 0.8
4 | C[C@@]12C[C@H]1CCCCCc1nc3ccccc3nc1O[C@@H]1C[C@H]3C(=O)N[C@]4(C(=O)NS(=O)(=O)C5CC5)C[C@H]4/C=C\CCCCC[C@H](NC(=O)O2)C(=O)N3C1 [Example 10, (3R,20R,22R,26S,32Z,34S,36R,39S)—N-(Cyclopropylsulfonyl)-22-methyl-24,38,40-trioxo-4,23-dioxa-1,6,13,25,37-pentaazaheptacyclo[24.13.1.1^3,39.0^5,14.0^7,12.0^20,22.0^34,36]hentetraconta-5,7,9,11,13,32-hexaene-36-carboxamide] | 0.02 | 0.35 | 1 | 5 | 15 | 0.6 | 0.6
5 | CC1(S(=O)(=O)NC(=O)[C@@]23C[C@H]2/C=C\CCCCC[C@@H]2NC(=O)O[C@]4(C)C[C@H]4CCCCCc4nc5ccccc5nc4O[C@@H]4C[C@@H](C(=O)N3)N(C4)C2=O)CC1 [Example 11, (3R,20R,22R,26S,32Z,34S,36R,39S)-22-Methyl-N-[(1-methylcyclopropyl)sulfonyl]-24,38,40-trioxo-4,23-dioxa-1,6,13,25,37-pentaazaheptacyclo[24.13.1.1^3,39.0^5,14.0^7,12.0^20,22.0^34,36]hentetraconta-5,7,9,11,13,32-hexaene-36-carboxamide] | 0.02 | 0.37 | 1 | 5 | 4 | 0.07 | 0.5

— patent US8828930B2, “Hepatitis C virus NS3 protease inhibitors” (Merck Sharp & Dohme Corp., priority 2009, dated 2014)
